Reference: ChEMBL document CHEMBL5724562, “Toxicity screen in isolated B cell assay results for EUbOPEN Chemogenomics Library” (2024)
Non-standard residues stand in square brackets, D forms with d. Residues, ends and D or L forms follow the SMILES beside them. Arg(Me) = CNC(=N)NCCC[C@H](N)C(=O)O; d4Pal = N[C@H](Cc1ccncc1)C(=O)O; azaGly = NNC(=O)O

System: B cell
Assay: Cytotoxicity screening of chemical probes in isolated B cell assay. Data is normalized to DMSO control, the cell viability average of replicates are reported. Reduction of ATP level more than 20% indicate compromised cell health status.
Details: human, 1 µM

Compound	Cell Viability [%]
Cl.O=c1c2cccn2c2ccccc2n1CCCN1CCC(c2ccc(Cl)cc2)CC1	96.0052
Cc1cn(-c2cc(NC(=O)c3ccc4c(c3)CN(c3cncnc3)C[C@@H]4C)cc(C(F)(F)F)c2)cn1	96.9111
CC(=O)c1cc(-c2cc(C(=O)NC3CC3)ccc2C)c2ncccn12	95.0596
CC(C)Cc1ccc([C@@H](C)C(=O)NS(C)(=O)=O)cc1 [REPARIXIN]	94.4279
CO[C@H]1CC[C@H](CNc2ccc(S(=O)(=O)NC(=O)c3ccc(N4CCN(CC5=C(c6ccc(Cl)cc6)CC(C)(C)CC5)CC4)cc3Oc3cnc4[nH]ccc4c3)cc2[N+](=O)[O-])CC1 [A-1211212]	88.4422
O=C1CCc2cc(Nc3cc(OC4CCOCC4)c([N+](=O)[O-])cc3Cl)ccc2N1	94.8245
C[C@H](NC(=O)c1cnc2n1[C@](C)(Cc1ccc(C#N)cc1)C(=O)N2c1cc(Cl)c(F)c(Cl)c1)C(=O)NC1(c2ccccn2)CC1 [BI 1950]	96.273
CC(C)N(CCCNC(=O)Nc1ccc(C(C)(C)C)cc1)C[C@H]1O[C@@H](n2cc(Br)c3c(N)ncnc32)[C@H](O)[C@@H]1O	95.9292
CNC(=N)NCCC[C@H](NC(=O)[C@H](CC(C)C)NC(=O)NNC(=O)[C@H](Cc1ccccc1)NC(=O)[C@H](CO)NC(=O)[C@H](CC(N)=O)NC(=O)[C@@H](Cc1ccncc1)NC(=O)[C@H](N)Cc1ccc(O)cc1)C(=O)N[C@@H](Cc1ccccc1)C(N)=O [KISS1-305] (H-[dY][d4Pal]NSF[azaGly]L[Arg(Me)]F-NH2)	101.037
c1ccc2oc(-c3csc(C4CCN(Cc5nc6ncccc6[nH]5)CC4)n3)cc2c1	83.0928
Cc1cc2c(cc1N1C(=O)c3cccc4c(CCCO)ccc(c34)C1=O)n(C)c(=O)n2C	92.6096
CCOc1nc2cccc(C(=O)O)c2n1Cc1ccc(-c2ccccc2-c2nnn[nH]2)cc1	101.389
C[C@@H](O[C@H]1OCCN(Cc2n[nH]c(=O)[nH]2)[C@H]1c1ccc(F)cc1)c1cc(C(F)(F)F)cc(C(F)(F)F)c1 [APREPITANT]	101.584
Cn1nc(C(F)(F)F)cc1-c1cnc(N2CCc3cc(S(=O)(=O)Nc4c(F)cc(Cl)cc4F)cc(N4CCCC4=O)c32)nc1 [TP-020]	96.7008
Cc1cccc(-c2cnc3occ(-c4ccc(C(=O)O)c(C5CCCC5)c4)c3c2)c1	94.5514
CC(C)N(CCCCOCC(=O)NS(C)(=O)=O)c1cnc(-c2ccccc2)c(-c2ccccc2)n1 [SELEXIPAG]	99.3334
COc1ccncc1C(=O)NC(=O)Nc1ccc(-c2ccccc2)c(C(F)(F)F)c1	100.618
O=C(c1ccc(C(=O)N2CCC(N3CCCC3)CC2)c(Nc2ccccc2)c1)N1CCC(N2CCCC2)CC1	93.0388
O=S(=O)(c1ccccc1)c1cnc2c(N3CCNCC3)cccc2c1 [INTEPIRDINE]	101.733
COc1cc(Nc2ccnc3ccc(Br)cc23)cc(OC)c1OC	95.869
Cc1ccc(/C(=C\CN2CCCC2)c2ccccn2)cc1 [TRIPROLIDINE]	98.8273
Nc1nc(NCc2ccccc2)nc(-c2ccccc2CO)n1 [Ogerin]	100.729
COc1ccc2c(O[C@@H]3C[C@H]4C(=O)N[C@]5(C(=O)O)CC5/C=C\CCCCC[C@H](NC(=O)OC5CCCC5)C(=O)N4C3)cc(-c3csc(NC(=O)C(C)C)n3)nc2c1C (stereo partly drawn) [BI 1230]	99.1645
